Measured values from patent EP4603105A1, “PHARMACEUTICAL COMPOSITION CONTAINING CYCLIC COMPOUND HAVING SELECTIVE KRAS INHIBITORY EFFECT AGAINST HRAS AND NRAS” (CHUGAI SEIYAKU KABUSHIKI KAISHA, priority 2022, dated 2024).
pIC50: −log10 of the molar value.

Tests used:
HRAS wild-type protein = HRAS wild-type protein (Homo sapiens, UniProt P01112); assay: Binding to HRAS by surface plasmon resonance (SPR), KD and KD ratio to KRAS; settings: ratio of KD for HRAS wild-type protein to KD for KRAS
Outline: (§1)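 SPR, 30°C: Avi-biotin RAS·GDP captured via Biotin CAPture (~100–300 RU); running buffer HBS pH 7.4, 1 mM DTT, 10 mM MgCl2, 0.01% Tween 20, 10 µM GDP, 4% DMSO. Single-cycle kinetics, 100 µL/min, 75 s injections; 1:1 model → KD.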

[1] = tested on: human lung cancer strain NCI-H441; type: cell-based
Outline: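 Proliferation was scored by […] measured after the reagent was added to cultures kept at 37°C in 5% carbon dioxide.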

[2] = molecular target: GDP-bound NRAS wild-type protein (Homo sapiens, UniProt P01111); assay: Binding to NRAS by surface plasmon resonance (SPR), KD and KD ratio to KRAS; settings: ratio of KD for GDP-bound NRAS wild-type protein to KD for KRAS
Outline: as §1

Sequence of GDP-bound NRAS wild-type protein (P01111 whole entry): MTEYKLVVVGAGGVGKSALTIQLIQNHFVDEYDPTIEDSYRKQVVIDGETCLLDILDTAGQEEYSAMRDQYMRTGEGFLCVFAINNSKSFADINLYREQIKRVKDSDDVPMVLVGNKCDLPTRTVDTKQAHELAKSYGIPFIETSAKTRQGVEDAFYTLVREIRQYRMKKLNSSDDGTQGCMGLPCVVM
Sequence of HRAS wild-type protein (P01112 whole entry): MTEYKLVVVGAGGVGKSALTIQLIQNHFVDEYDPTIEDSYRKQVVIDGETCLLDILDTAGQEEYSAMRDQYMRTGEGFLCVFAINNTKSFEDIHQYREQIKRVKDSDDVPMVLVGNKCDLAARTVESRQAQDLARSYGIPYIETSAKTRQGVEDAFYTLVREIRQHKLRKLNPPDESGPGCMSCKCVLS

SMILES | HRAS /KRAS (HRAS wild-type protein) | pIC50 [1] | NRAS /KRAS [2]
CCC[C@H]1C(=O)N[C@@H]([C@@H](C)CC)C(=O)N(C2CC2)CC(=O)N(C)[C@H]2C/C=C\CCN(C2=O)[C@@H](Cc2ccc(C(F)(F)F)cc2)C(=O)N(C)CC(=O)N[C@@H](CCc2ccc(C(F)(F)F)c(OC)c2)C(=O)N2C[C@H](OCC)C[C@H]2C(=O)N(C)C2(CCC2)C(=O)N(C)[C@@H](C2CCCC2)C(=O)N(C)[C@H](C(=O)N2CCCCC2)CC(=O)N1C [PP3095] | A (a compound having 10 or more and less than 20 is denoted as A) | 7.47 | A (a compound having 10 or more and less than 20 is denoted as A)
CCC[C@H]1C(=O)N[C@@H]([C@@H](C)CC)C(=O)N(C2CC2)CC(=O)N(C)[C@H]2C/C=C\CCN(C2=O)[C@@H](Cc2ccc(C)cc2)C(=O)N(C)CC(=O)N[C@@H](CCc2ccc(C(F)(F)F)c(OC)c2)C(=O)N2C[C@H](OCC)C[C@H]2C(=O)N(C)C2(CCC2)C(=O)N(C)[C@@H](C2CCCC2)C(=O)N(C)[C@H](C(=O)N2CCCCC2)CC(=O)N1C [PP3096] | A (a compound having 10 or more and less than 20 is denoted as A) | 7.45 | A (a compound having 10 or more and less than 20 is denoted as A)
CCC[C@H]1C(=O)N[C@@H]([C@@H](C)CC)C(=O)N(C2CC2)CC(=O)N(C)[C@H]2C/C=C\CCN(C2=O)[C@@H](Cc2ccc(C(F)(F)F)cc2)C(=O)N(C)CC(=O)N[C@@H](CCc2ccc(C(F)(F)F)c(OC)c2)C(=O)N2C[C@H](OCC)C[C@H]2C(=O)N(C)C2(CCC2)C(=O)N(C)[C@@H](C2CCCC2)C(=O)N(C)[C@H](C(=O)N2CCCC2)CC(=O)N1C [PP3097] | A (a compound having 10 or more and less than 20 is denoted as A) | 8.27 | A (a compound having 10 or more and less than 20 is denoted as A)
CCC[C@H]1C(=O)N[C@@H]([C@@H](C)CC)C(=O)N(C2CC2)CC(=O)N(C)[C@H]2C/C=C\CCN(C2=O)[C@@H](Cc2ccc(C)cc2)C(=O)N(C)CC(=O)N[C@@H](CCc2ccc(C(F)(F)F)c(OC)c2)C(=O)N2C[C@H](OCC)C[C@H]2C(=O)N(C)C2(CCC2)C(=O)N(C)[C@@H](C2CCCC2)C(=O)N(C)[C@H](C(=O)N2CCCC2)CC(=O)N1C [PP3098] | A (a compound having 10 or more and less than 20 is denoted as A) | 8.33 | A (a compound having 10 or more and less than 20 is denoted as A)
CCC[C@H]1C(=O)N[C@@H]([C@@H](C)CC)C(=O)N2CCC[C@H]2C(=O)N(C)[C@H]2C/C=C\CCN(C2=O)[C@@H](Cc2ccc(C(F)(F)F)cc2)C(=O)N(C)CC(=O)N[C@@H](CCc2ccc(C(F)(F)F)c(OC)c2)C(=O)N2C[C@H](OCC)C[C@H]2C(=O)N(C)C2(CCC2)C(=O)N(C)[C@@H](C2CCCC2)C(=O)N(C)[C@H](C(=O)N2CCCCC2)CC(=O)N1C [PP3099] | A (a compound having 10 or more and less than 20 is denoted as A) | 7.88 | A (a compound having 10 or more and less than 20 is denoted as A)
CCC[C@H]1C(=O)N[C@@H]([C@@H](C)CC)C(=O)N2CCC[C@H]2C(=O)N(C)[C@H]2C/C=C\CCN(C2=O)[C@@H](Cc2ccc(C)cc2)C(=O)N(C)CC(=O)N[C@@H](CCc2ccc(C(F)(F)F)c(OC)c2)C(=O)N2C[C@H](OCC)C[C@H]2C(=O)N(C)C2(CCC2)C(=O)N(C)[C@@H](C2CCCC2)C(=O)N(C)[C@H](C(=O)N2CCCCC2)CC(=O)N1C [PP3100] | B (a compound having 3 or more and less than 10 is denoted as B) | 7.82 | A (a compound having 10 or more and less than 20 is denoted as A)
CCC[C@H]1C(=O)N[C@@H]([C@@H](C)CC)C(=O)N2CCC[C@H]2C(=O)N(C)[C@H]2C/C=C\CCN(C2=O)[C@@H](Cc2ccc(C(F)(F)F)cc2)C(=O)N(C)CC(=O)N[C@@H](CCc2ccc(C(F)(F)F)c(OC)c2)C(=O)N2C[C@H](OCC)C[C@H]2C(=O)N(C)C2(CCC2)C(=O)N(C)[C@@H](C2CCCC2)C(=O)N(C)[C@H](C(=O)N2CCCC2)CC(=O)N1C [PP3101] | A (a compound having 10 or more and less than 20 is denoted as A) | 8.31 | A (a compound having 10 or more and less than 20 is denoted as A)
CCC[C@H]1C(=O)N[C@@H]([C@@H](C)CC)C(=O)N2CCC[C@H]2C(=O)N(C)[C@H]2C/C=C\CCN(C2=O)[C@@H](Cc2ccc(C)cc2)C(=O)N(C)CC(=O)N[C@@H](CCc2ccc(C(F)(F)F)c(OC)c2)C(=O)N2C[C@H](OCC)C[C@H]2C(=O)N(C)C2(CCC2)C(=O)N(C)[C@@H](C2CCCC2)C(=O)N(C)[C@H](C(=O)N2CCCC2)CC(=O)N1C [PP3102] | A (a compound having 10 or more and less than 20 is denoted as A) | 8.17 | A (a compound having 10 or more and less than 20 is denoted as A)
CCC[C@H]1C(=O)N[C@@H]([C@@H](C)CC)C(=O)N(C)CC(=O)N(C)[C@H]2C/C=C\CCN(C2=O)[C@@H](Cc2ccc(C)cc2)C(=O)N(C)CC(=O)N[C@@H](CCc2ccc(C(F)(F)F)c(OC)c2)C(=O)N2C[C@H](OCC)C[C@H]2C(=O)N(C)C2(CCC2)C(=O)N(C)[C@@H](C2CCCC2)C(=O)N(C)[C@H](C(=O)N2CCCCC2)CC(=O)N1C [PP3104] | A (a compound having 10 or more and less than 20 is denoted as A) | 8.42 | A (a compound having 10 or more and less than 20 is denoted as A)
CCC[C@H]1C(=O)N[C@@H]([C@@H](C)CC)C(=O)N(C)CC(=O)N(C)[C@H]2C/C=C\CCN(C2=O)[C@@H](Cc2ccc(C(F)(F)F)cc2)C(=O)N(C)CC(=O)N[C@@H](CCc2ccc(C(F)(F)F)c(OC)c2)C(=O)N2C[C@H](OCC)C[C@H]2C(=O)N(C)C2(CCC2)C(=O)N(C)[C@@H](C2CCCC2)C(=O)N(C)[C@H](C(=O)N2CCCC2)CC(=O)N1C [PP3105] | A (a compound having 10 or more and less than 20 is denoted as A) | 8.60 | AA (a compound having 20 or more is denoted as AA)
CCC[C@H]1C(=O)N[C@@H]([C@@H](C)CC)C(=O)N(C)CC(=O)N(C)[C@H]2C/C=C\CCN(C2=O)[C@@H](Cc2ccc(C)cc2)C(=O)N(C)CC(=O)N[C@@H](CCc2ccc(C(F)(F)F)c(OC)c2)C(=O)N2C[C@H](OCC)C[C@H]2C(=O)N(C)C2(CCC2)C(=O)N(C)[C@@H](C2CCCC2)C(=O)N(C)[C@H](C(=O)N2CCCC2)CC(=O)N1C [PP3106] | A (a compound having 10 or more and less than 20 is denoted as A) | 8.54 | A (a compound having 10 or more and less than 20 is denoted as A)
CC[C@H](C)[C@@H]1NC(=O)[C@H](CC(C)C)N(C)C(=O)CSC[C@H](C(=O)N(C)C)N(C)C(=O)[C@H](C2CCCC2)N(C)C(=O)C2(CCCC2)NC(=O)[C@@H]2CCCN2C(=O)[C@@H](CCc2cc(F)c(C(F)(F)F)c(F)c2)NC(=O)CN(C)C(=O)[C@H](Cc2ccc(C(F)(F)F)cc2)N2CC=CC[C@@H](C2=O)N(C)C(=O)CN(C)C1=O [PP3108] | B (a compound having 3 or more and less than 10 is denoted as B) | 5.03 | C (A compound having a KD ratio of 0.1 or more and less than 3 is denoted as C)
CCC[C@H]1C(=O)N[C@@H]([C@@H](C)CC)C(=O)N(C2CC2)CC(=O)N(C)[C@H]2C/C=C\CCN(C2=O)[C@@H](Cc2ccc(C(F)(F)F)cc2)C(=O)N(C)CC(=O)N[C@@H](CCc2cc(F)c(C(F)(F)F)c(F)c2)C(=O)N2C[C@H](OCC)C[C@H]2C(=O)N(C)C2(CCC2)C(=O)N(C)[C@@H](C2CCCC2)C(=O)N(C)[C@H](C(=O)N2CCCCC2)CC(=O)N1C [PP3110] | A (a compound having 10 or more and less than 20 is denoted as A) | 7.16 | A (a compound having 10 or more and less than 20 is denoted as A)
CCC[C@H]1C(=O)N[C@@H]([C@@H](C)CC)C(=O)N(C2CC2)CC(=O)N(C)[C@H]2C/C=C\CCN(C2=O)[C@@H](Cc2ccc(C)cc2)C(=O)N(C)CC(=O)N[C@@H](CCc2cc(F)c(C(F)(F)F)c(F)c2)C(=O)N2C[C@H](OCC)C[C@H]2C(=O)N(C)C2(CCC2)C(=O)N(C)[C@@H](C2CCCC2)C(=O)N(C)[C@H](C(=O)N2CCCCC2)CC(=O)N1C [PP3111] | A (a compound having 10 or more and less than 20 is denoted as A) | 7.75 | A (a compound having 10 or more and less than 20 is denoted as A)
CCC[C@H]1C(=O)N[C@@H]([C@@H](C)CC)C(=O)N(C2CC2)CC(=O)N(C)[C@H]2C/C=C\CCN(C2=O)[C@@H](Cc2ccc(C(F)(F)F)cc2)C(=O)N(C)CC(=O)N[C@@H](CCc2cc(F)c(C(F)(F)F)c(F)c2)C(=O)N2C[C@H](OCC)C[C@H]2C(=O)N(C)C2(CCC2)C(=O)N(C)[C@@H](C2CCCC2)C(=O)N(C)[C@H](C(=O)N2CCCC2)CC(=O)N1C [PP3112] | B (a compound having 3 or more and less than 10 is denoted as B) | 7.49 | A (a compound having 10 or more and less than 20 is denoted as A)
CCC[C@H]1C(=O)N[C@@H]([C@@H](C)CC)C(=O)N(C2CC2)CC(=O)N(C)[C@H]2C/C=C\CCN(C2=O)[C@@H](Cc2ccc(C)cc2)C(=O)N(C)CC(=O)N[C@@H](CCc2cc(F)c(C(F)(F)F)c(F)c2)C(=O)N2C[C@H](OCC)C[C@H]2C(=O)N(C)C2(CCC2)C(=O)N(C)[C@@H](C2CCCC2)C(=O)N(C)[C@H](C(=O)N2CCCC2)CC(=O)N1C [PP3113] | A (a compound having 10 or more and less than 20 is denoted as A) | 8.21 | A (a compound having 10 or more and less than 20 is denoted as A)
